According to ChEMBL document CHEMBL1201862, “PubChem BioAssay data set” (2004):
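Growth conditions: 96-well plates. Treatment: test compound, 48 hours, 5 concentrations. Analysis: linear interpolation between bracketing concentrations; unreached endpoints set to highest concentration. GI50: concentration for 50% inhibition of growth.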 The source made the active and inactive calls. Rule as the data show it: active = GI50 up to about 1.1 µM and inactive = higher.

Assays:
Experiment in all cases: NCI tumour cell line growth inhibition, 48 h
HCT-15 = tested on: HCT-15
OVCAR-8 = tested on: OVCAR-8
LOX IMVI = tested on: LOX IMVI
HCT-116 = tested on: HCT-116
U-251 = tested on: U-251
OVCAR-4 = tested on: OVCAR-4
NCI-H23 = tested on: NCI-H23
CCRF-CEM = tested on: CCRF-CEM
SK-MEL-28 = tested on: SK-MEL-28
SW-620 = tested on: SW-620
M14 = tested on: M14
DU-145 = tested on: DU-145
Malme-3M = tested on: Malme-3M
HCC 2998 = tested on: HCC 2998
SR = tested on: SR
NCI-H460 = tested on: NCI-H460

Row | SMILES | GI50 (HCT-15) | GI50 (OVCAR-8) | GI50 (LOX IMVI) | GI50 (HCT-116) | GI50 (U-251) | GI50 (OVCAR-4) | GI50 (NCI-H23) | GI50 (CCRF-CEM) | GI50 (SK-MEL-28) | GI50 (SW-620) | GI50 (M14) | GI50 (DU-145) | GI50 (Malme-3M) | GI50 (HCC 2998) | GI50 (SR) | GI50 (NCI-H460)
1 | Cc1nc(=O)[nH]c2s/c(=N/C3CCCCC3)n(C3CCCCC3)c(=O)c12 | > 100 µM | > 100 µM (inactive) | > 100 µM (inactive) | > 100 µM (inactive) | > 100 µM (inactive) | > 100 µM (inactive) | > 100 µM (inactive) | > 100 µM (inactive) | > 100 µM (inactive) | > 100 µM (inactive) | > 100 µM (inactive) | > 100 µM (inactive) | > 100 µM (inactive) | > 100 µM (inactive) | – | –
2 | CCCCC1=C(C(=O)N2CCOCC2)C2(OCCO2)C1Cl (stereo not given) | 26.9 µM | 45.9 µM (inactive) | 28.2 µM (inactive) | 41.7 µM (inactive) | 35.8 µM (inactive) | 28.8 µM (inactive) | 25.5 µM (inactive) | > 100 µM (inactive) | 23 µM (inactive) | 31 µM (inactive) | 16.9 µM (inactive) | 44.5 µM (inactive) | 33.6 µM (inactive) | – | – | –
3 | Cc1ccc(C(=O)N/N=C(\N=N\c2ccccc2)c2ccc(N(C)C)cc2)cc1 | > 100 µM | > 100 µM (inactive) | > 100 µM (inactive) | > 100 µM (inactive) | > 100 µM (inactive) | 16.3 µM (inactive) | > 100 µM (inactive) | > 100 µM (inactive) | > 100 µM (inactive) | > 100 µM (inactive) | > 100 µM (inactive) | 20.9 µM (inactive) | – | 90.8 µM (inactive) | 35.5 µM (inactive) | > 100 µM (inactive)
4 | CCOC(=O)c1c(N2CCOCC2)ncn(-c2cccc(Cl)c2)c1=O | > 100 µM | > 100 µM (inactive) | > 100 µM (inactive) | > 100 µM (inactive) | > 100 µM (inactive) | > 100 µM (inactive) | > 100 µM (inactive) | > 100 µM (inactive) | > 100 µM (inactive) | > 100 µM (inactive) | > 100 µM (inactive) | > 100 µM (inactive) | > 100 µM (inactive) | > 100 µM (inactive) | – | > 100 µM (inactive)
5 | Cc1cc(OCc2nnc3n2N=C(c2cc(F)c(Cl)cc2Cl)/C(=C/c2ccc(Cl)cc2)S3)ccc1Cl | 19.7 µM | 18.8 µM (inactive) | 21.9 µM (inactive) | 12.8 µM (inactive) | 18.3 µM (inactive) | 19.5 µM (inactive) | 27.4 µM (inactive) | 2.95 µM (inactive) | 19.8 µM (inactive) | 17.4 µM (inactive) | 25 µM (inactive) | 17.4 µM (inactive) | – | 19.6 µM (inactive) | 7.96 µM (inactive) | 25.9 µM (inactive)
6 | CN(C)c1ccc(C2CC(c3ccc4ccccc4c3O)=NN2c2ccc([N+](=O)[O-])cc2[N+](=O)[O-])cc1 (stereo not given) | 61.5 µM | 56 µM (inactive) | – | 37.5 µM (inactive) | 41.9 µM (inactive) | > 100 µM (inactive) | 17 µM (inactive) | 22.3 µM (inactive) | 56 µM (inactive) | 36.3 µM (inactive) | 63 µM (inactive) | 64.9 µM (inactive) | 19.2 µM (inactive) | 71 µM (inactive) | 12.6 µM (inactive) | 32.3 µM (inactive)
7 | S=C(Nc1ccc(/N=N/c2ccccc2)cc1)SCc1ccccc1 | 15.1 µM | 7.35 µM (inactive) | 18.7 µM (inactive) | 14.8 µM (inactive) | 16.2 µM (inactive) | 16.1 µM (inactive) | 16.4 µM (inactive) | 15.9 µM (inactive) | 18.1 µM (inactive) | 20.6 µM (inactive) | 17.3 µM (inactive) | 15.9 µM (inactive) | 11 µM (inactive) | – | – | 20.2 µM (inactive)
8 | Cc1cn(S(=O)(=O)c2ccccc2)c2c(OCc3ccccc3)cc(NS(C)(=O)=O)cc12 | 12.9 µM | 32 µM (inactive) | 11.4 µM (inactive) | 9.12 µM (inactive) | 10.6 µM (inactive) | 6.35 µM (inactive) | 16 µM (inactive) | – | 52.8 µM (inactive) | 17.8 µM (inactive) | 19.2 µM (inactive) | 31.3 µM (inactive) | 8.38 µM (inactive) | 24.4 µM (inactive) | 4.98 µM (inactive) | 18.5 µM (inactive)
9 | O=P(O)(O)C(NCC(O)CN1CCOCC1)P(=O)(O)O (stereo not given) | > 100 µM | > 100 µM (inactive) | > 100 µM (inactive) | > 100 µM (inactive) | > 100 µM (inactive) | – | > 100 µM (inactive) | > 100 µM (inactive) | > 100 µM (inactive) | > 100 µM (inactive) | > 100 µM (inactive) | > 100 µM (inactive) | > 100 µM (inactive) | > 100 µM (inactive) | > 100 µM (inactive) | > 100 µM (inactive)
10 | COc1ccc(NC(=O)Oc2cc(C)c3ccc(=O)cc-3o2)c(OC)c1.COc1ccc(NC(=O)Oc2ccc3c(C)cc(=O)oc3c2)c(OC)c1 | > 100 µM | > 100 µM (inactive) | – | > 100 µM (inactive) | > 100 µM (inactive) | 69.8 µM (inactive) | > 100 µM (inactive) | – | > 100 µM (inactive) | > 100 µM (inactive) | > 100 µM (inactive) | > 100 µM (inactive) | > 100 µM (inactive) | 82.8 µM (inactive) | – | > 100 µM (inactive)
11 | O=C(Nc1ccc(Cl)cc1Cl)c1cc2nc3ccccc3c(=O)n2c2ccccc12 | > 10 µM | > 10 µM (inactive) | > 10 µM (inactive) | > 10 µM (inactive) | > 10 µM (inactive) | – | > 10 µM (inactive) | > 10 µM (inactive) | > 10 µM (inactive) | > 10 µM (inactive) | > 10 µM (inactive) | > 10 µM (inactive) | > 10 µM (inactive) | > 10 µM (inactive) | – | > 10 µM (inactive)
12 | O=C(O)c1ccc(OCc2nc3cc(C(F)(F)F)ccc3nc2-c2ccccc2)cc1 | 39.1 µM | 41.9 µM (inactive) | 40 µM (inactive) | 36.9 µM (inactive) | 44.2 µM (inactive) | – | 36.8 µM (inactive) | 42.8 µM (inactive) | 61 µM (inactive) | 53.2 µM (inactive) | 80.4 µM (inactive) | 60.1 µM (inactive) | – | 41.2 µM (inactive) | 11.5 µM (inactive) | 24.7 µM (inactive)
13 | C=CCSC1=N/C(=C\c2ccc(C)cc2)C(=O)N1CC=C | 25.3 µM | 24.8 µM (inactive) | 26.5 µM (inactive) | 18.4 µM (inactive) | 22.7 µM (inactive) | 27.3 µM (inactive) | 32.7 µM (inactive) | – | 45.7 µM (inactive) | 32.4 µM (inactive) | 29 µM (inactive) | 20.7 µM (inactive) | – | 23.8 µM (inactive) | 11.5 µM (inactive) | 34.3 µM (inactive)
14 | C=CCc1ccccc1CC1(OCC)OC(=O)c2ccccc21 (stereo not given) | 42.3 µM | > 100 µM (inactive) | – | 41.2 µM (inactive) | > 100 µM (inactive) | > 100 µM (inactive) | 56.5 µM (inactive) | – | > 100 µM (inactive) | > 100 µM (inactive) | 66.1 µM (inactive) | > 100 µM (inactive) | – | > 100 µM (inactive) | – | 77.6 µM (inactive)
15 | COC(=O)C1CCC(=O)N1CN(C(C)=O)c1ccccc1 (stereo not given) | > 100 µM | > 100 µM (inactive) | > 100 µM (inactive) | > 100 µM (inactive) | > 100 µM (inactive) | > 100 µM (inactive) | > 100 µM (inactive) | > 100 µM (inactive) | > 100 µM (inactive) | > 100 µM (inactive) | > 100 µM (inactive) | > 100 µM (inactive) | > 100 µM (inactive) | – | 3.39 µM (inactive) | > 100 µM (inactive)
16 | CN1Cc2ccccc2/C=C\c2ccccc21 | 52.4 µM | > 100 µM (inactive) | 72.9 µM (inactive) | 78.2 µM (inactive) | > 100 µM (inactive) | 38.5 µM (inactive) | 62.1 µM (inactive) | 47.3 µM (inactive) | > 100 µM (inactive) | > 100 µM (inactive) | 46.8 µM (inactive) | > 100 µM (inactive) | 51.4 µM (inactive) | 47.9 µM (inactive) | – | 42.7 µM (inactive)
17 | CC(=O)C1C(=O)C(=O)N(c2cccc([N+](=O)[O-])c2)C1=O (stereo not given) | > 100 µM | > 100 µM (inactive) | > 100 µM (inactive) | > 100 µM (inactive) | > 100 µM (inactive) | > 100 µM (inactive) | > 100 µM (inactive) | > 100 µM (inactive) | > 100 µM (inactive) | > 100 µM (inactive) | > 100 µM (inactive) | > 100 µM (inactive) | – | > 100 µM (inactive) | – | > 100 µM (inactive)
18 | Cc1[nH]n(-c2ccc(S(=O)(=O)O)cc2)c(=O)c1/N=N/c1ccccc1 | > 100 µM | > 100 µM (inactive) | 26.7 µM (inactive) | > 100 µM (inactive) | > 100 µM (inactive) | > 100 µM (inactive) | > 100 µM (inactive) | – | > 100 µM (inactive) | > 100 µM (inactive) | > 100 µM (inactive) | > 100 µM (inactive) | 51.6 µM (inactive) | 8.04 µM (inactive) | > 100 µM (inactive) | > 100 µM (inactive)
19 | O=C1c2ccccc2-c2oc(=O)c3ccccc3c21 | > 100 µM | > 100 µM (inactive) | > 100 µM (inactive) | > 100 µM (inactive) | > 100 µM (inactive) | > 100 µM (inactive) | > 100 µM (inactive) | > 100 µM (inactive) | > 100 µM (inactive) | > 100 µM (inactive) | > 100 µM (inactive) | > 100 µM (inactive) | – | – | – | > 100 µM (inactive)
